Results from ChEMBL document CHEMBL1138481, “Compounds binding to the S2-S3 pockets of thrombin” (J Med Chem, 2009).
pIC50, pKd: −log10 of the molar value.

Tests used:
[1] = Inhibition of human alpha thrombin by surface plasmon resonance assay
[2] = Inhibition of human alpha thrombin by chromogenic substrate enzyme assay

Structure (SMILES) | pKd [1] | pIC50 [2]
CCCNC(=O)[C@@H]1CCCN1C(=O)CC1(O)c2ccccc2-c2ccccc21 | 4.00 | 3.42
N[C@@H](C(=O)N1CCC[C@H]1C(=O)NCC1CCCCC1)C1CCCCC1 | 5.05 | 4.70
N[C@@H](C(=O)N1CCC[C@H]1C(=O)NCc1cccs1)C1CCCCC1 | 5.96 | 5.38
COCCNC(=O)[C@@H]1CCCN1C(=O)CC1(O)c2ccccc2-c2ccccc21 | 3.12 | < 3.40
CNC(=O)[C@@H]1CCCN1C(=O)[C@H](N)Cc1ccc(Cl)cc1 | 3.26 | < 3.40
CCCNC(=O)[C@@H]1CCCN1C(=O)CC(c1ccccc1)c1ccccc1 | 3.57 | < 3.40
N[C@H](Cc1ccc(Cl)cc1)C(=O)N1CCC[C@H]1C(=O)NCc1cccs1 | 5.66 | 4.89
COCCNC(=O)[C@@H]1CCCN1C(=O)CC1CCCCC1 | < 3.00 | < 3.40
O=C(NCc1cccs1)[C@@H]1CCCN1C(=O)CC(c1ccccc1)c1ccccc1 | 4.47 | 3.92
O=C(NCc1cccs1)[C@@H]1CCCN1C(=O)CC1(O)c2ccccc2-c2ccccc21 | 4.64 | 4.31
O=C(NCc1cccs1)[C@@H]1CCCN1C(=O)Cc1ccc2c(c1)OCO2 | 3.60 | < 3.40
CNC(=O)[C@@H]1CCCN1C(=O)CC1CCCCC1 | < 3.00 | < 3.40
CCCNC(=O)[C@@H]1CCCN1C(=O)[C@H](N)Cc1ccc(Cl)cc1 | 4.35 | 3.68
O=C(NCc1cccs1)[C@@H]1CCCN1C(=O)CC1CCCCC1 | 3.00 | < 3.40
CNC(=O)[C@@H]1CCCN1C(=O)[C@H](N)C(c1ccccc1)c1ccccc1 | 4.42 | 3.64
CNC(=O)[C@@H]1CCCN1C(=O)[C@H](N)C1CCCCC1 | 3.10 | < 3.40
CCCNC(=O)[C@@H]1CCCN1C(=O)[C@H](N)C(c1ccccc1)c1ccccc1 |  | 4.74
CC(C)CNC(=O)[C@@H]1CCCN1C(=O)[C@H](N)C1CCCCC1 | 4.31 | 3.64

Structure (SMILES) | pKd [1] | pIC50 [2]
COCCNC(=O)[C@@H]1CCCN1C(=O)[C@H](O)C1CCCCC1 | < 3.00 | < 3.40
CNC(=O)[C@@H]1CCCN1C(=O)Cc1ccc2c(c1)OCO2 | < 3.00 | < 3.40
COCCNC(=O)[C@@H]1CCCN1C(=O)Cc1ccc2c(c1)OCO2 | < 3.00 | < 3.40
N[C@@H](C(=O)N1CCC[C@H]1C(=O)NCc1cccs1)C(c1ccccc1)c1ccccc1 | 6.57 | 5.80
CNC(=O)[C@@H]1CCCN1C(=O)CCc1ccc(Cl)cc1 | < 3.00 | < 3.40
CNC(=O)[C@@H]1CCCN1C(=O)CC1(O)c2ccccc2-c2ccccc21 | < 3.00 | < 3.40
COCCNC(=O)[C@@H]1CCCN1C(=O)CCc1ccc(Cl)cc1 | 3.21 | < 3.40
COCCNC(=O)[C@@H]1CCCN1C(=O)CC(c1ccccc1)c1ccccc1 | < 3.00 | < 3.40
CCCNC(=O)[C@@H]1CCCN1C(=O)CC1CCCCC1 | < 3.00 | < 3.40
CCCNC(=O)[C@@H]1CCCN1C(=O)CCc1ccc(Cl)cc1 | < 3.00 | < 3.40
COCCNC(=O)[C@@H]1CCCN1C(=O)[C@H](N)Cc1ccc(Cl)cc1 | 3.85 | < 3.40
CCCNC(=O)[C@@H]1CCCN1C(=O)[C@H](N)C1CCCCC1 | 4.57 | 3.92
COCCNC(=O)[C@@H]1CCCN1C(=O)[C@H](N)C(c1ccccc1)c1ccccc1 | 5.17 | 4.05
CNC(=O)[C@@H]1CCCN1C(=O)[C@H](NS(=O)(=O)Cc1ccccc1)C1CCCCC1 | 4.46 | 3.77
O=C(NCc1cccs1)[C@@H]1CCCN1C(=O)CCc1ccc(Cl)cc1 | 3.15 | < 3.40
COCCNC(=O)[C@@H]1CCCN1C(=O)[C@H](N)C1CCCCC1 | 3.96 | < 3.40
CNC(=O)[C@@H]1CCCN1C(=O)CC(c1ccccc1)c1ccccc1 | < 3.00 | < 3.40
CCCNC(=O)[C@@H]1CCCN1C(=O)Cc1ccc2c(c1)OCO2 | < 3.00 | < 3.40
